According to patent publication US10420772B2, “Animal and human anti-trypanosomonal and anti-leishmania agents” (Celgene Corporation, priority 2016, dated 2019):

How the values were obtained:
[1] = tested on: STIB 719/ILRAD 560 T. vivax (drug sensitive) strain; test: Ex vivo Alamar Blue 48 hrs drug sensitivity assay for T. vivax; format: cell-based; conditions: Trypanosoma vivax, STIB719; STIB 719/ILRAD 560 T. vivax bloodstream form, ex vivo, Alamar Blue, 48 hrs; read-out: T. vivax Act.
Protocol: Ex vivo Alamar Blue48 hrs drug sensitivity assay for T. vivax. Compounds were tested ex vivo for chemotherapeutic efficacy against the STIB 719/ILRAD 560 T. vivax (drug sensitive) strain, using an Alamar Blue assay. Test compounds were prepared as 10 mg/mL DMSO stocks for each assay run. Compounds were assayed in at least three separate, independent test runs and an 11-point dilution curve was used to determine the IC50 values. Bloodstream form trypanosomes were propagated and harvested from a highly parasitaemic mouse (via cardiac puncture) and were incubated with test compounds for 45 hrs at 37° C. in a humidified atmosphere containing 5% CO2, supported in HMI media containing 20% bovine serum. Thereafter, 10 μL of Resazurin dye (12.5 mg in 100 mL of phosphate buffered saline, Sigma-Aldrich, Buchs, Switzerland) were added for an additional 3 hrs. Plates were then read using a fluorescent plate reader (Spectramax, Gemini XS, Bucher Biotec, Basel, Switzerland) using an excitation wavelength of 536 nm and an emission wavelength of 588 nm. Data points were averaged to generate sigmoidal dose-response curves and IC50 values were determined using Softmax Pro 5.2 software.

[2] = tested on: IL3000 T. congolense (drug sensitive) strain; test: In vitro Alamar Blue 72 hrs drug sensitivity assay for T. congolense; format: cell-based; conditions: Trypanosoma congolense, IL3000 T. congolense bloodstream form, read-out: T. congo Act.
Protocol: In Vitro Alamar Blue 72 Hrs Drug Sensitivity Assay for T. Congolense. Compounds were tested in vitro for chemotherapeutic efficacy against the IL3000 T. congolense (drug sensitive) strain using an Alamar Blue assay. Test compounds were prepared as 10 mg/mL DMSO stocks for each assay run. Compounds were assayed in at least three separate, independent test runs and an 11-point dilution curve was used to determine the IC50 values. Bloodstream form trypanosomes were supported in HMI media containing 20% bovine serum and were incubated with test compounds for 69 hrs at 34° C. in a humidified atmosphere containing 5% CO2. Thereafter, 10 μL of Resazurin dye (12.5 mg in 100 mL of phosphate buffered saline, Sigma-Aldrich, Buchs, Switzerland) were added for an additional 3 hrs. Plates were then read using a fluorescent plate reader (Spectramax, Gemini XS, Bucher Biotec, Basel, Switzerland) using an excitation wavelength of 536 nm and an emission wavelength of 588 nm. Data points were averaged to generate sigmoidal dose-response curves and IC50 values were determined using Softmax Pro 5.2 software.

SMILES | IC50 [1] | IC50 [2]
CC1(Nc2ncc3nc(Nc4cncc(Cl)c4)n([C@H]4CC[C@@H](CN)CC4)c3n2)CCOCC1 [A-33, 9-((1s,4s)-4-(aminomethyl)cyclohexyl)-N8-(5-chloropyridin-3-yl)-N2-(4-methyltetrahydro-2H-pyran-4-yl)-9H-purine-2,8-diamine] | < 150 nM | 150 to 350 nM
CC1(Nc2ncc3nc(Nc4cccc(Cl)c4)n(C4CC(N)C4)c3n2)CCOCC1 (stereo not drawn) [A-35, 9-(3-aminocyclobutyl)-N8-(3-chlorophenyl)-N2-(4-methyltetrahydro-2H-pyran-4-yl)-9H-purine-2,8-diamine] | < 150 nM | < 150 nM
CC(C)(C)Nc1ncc2nc(Nc3ccc(Cl)c(Cl)c3)n(C3CC(N)C3)c2n1 (stereo not drawn) [A-39, 9-(3-aminocyclobutyl)-N2-tert-butyl-N8-(3,4-dichlorophenyl)-9H-purine-2,8-diamine] | 150 to 350 nM | 350 to 500 nM
CC1(Nc2ncc3nc(Nc4cccc(Cl)c4)n([C@H]4CC[C@@H](CN5CCOCC5)CC4)c3n2)CCOCC1 [A-41, N8-(3-chlorophenyl)-N2-(4-methyltetrahydro-2H-pyran-4-yl)-9-((1s,4s)-4-(morpholinomethyl)cyclohexyl)-9H-purine-2,8-diamine] | 350 to 500 nM | < 150 nM
CC1(Nc2ncc3nc(Nc4cc(C(F)(F)F)ccc4F)n([C@H]4CC[C@@H](CN)CC4)c3n2)CCOCC1 [A-42, 9-((1s,4s)-4-(aminomethyl)cyclohexyl)-N8-(2-fluoro-5-(trifluoromethyl)phenyl)-N2-(4-methyltetrahydro-2H-pyran-4-yl)-9H-purine-2,8-diamine] | < 150 nM | < 150 nM
CC1(Nc2ncc3nc(Nc4cccc(C(F)(F)F)n4)n([C@H]4CC[C@@H](CN)CC4)c3n2)CCOCC1 [A-45, 9-((1s,4s)-4-(aminomethyl)cyclohexyl)-N2-(4-methyltetrahydro-2H-pyran-4-yl)-N8-(6-(trifluoromethyl)pyridin-2-yl)-9H-purine-2,8-diamine] | 150 to 350 nM | 150 to 350 nM
CC(C)(C)Nc1ncc2nc(Nc3cc(Cl)cc(Cl)c3)n([C@H]3CC[C@@H](CN)CC3)c2n1 [A-48, 9-((1s,4s)-4-(aminomethyl)cyclohexyl)-N2-tert-butyl-N8-(3,5-dichlorophenyl)-9H-purine-2,8-diamine] | 350 to 500 nM | 150 to 350 nM
CC1(Nc2ncc3nc(Nc4cccc(Cl)c4)n([C@H]4CC[C@@H](CN)CC4)c3n2)CC1 [A-51, 9-((1s,4s)-4-(aminomethyl)cyclohexyl)-N8-(3-chlorophenyl)-N2-(1-methylcyclopropyl)-9H-purine-2,8-diamine] | < 150 nM | < 150 nM
CC(C)(C)Nc1ncc2nc(Nc3cccc(C#N)c3)n(C3CCC(N)CC3)c2n1 (stereo not drawn) [A-52, 3-(9-((1r,4r)-4-aminocyclohexyl)-2-(tert-butylamino)-9H-purin-8-ylamino)benzonitrile] | < 150 nM | 350 to 500 nM
CC(C)(C)Nc1ncc2nc(Nc3cc(Cl)cc(C(F)(F)F)c3)n(C3CCC(N)CC3)c2n1 (stereo not drawn) [A-53, 9-((1r,4r)-4-aminocyclohexyl)-N2-tert-butyl-N8-(3-chloro-5-(trifluoromethyl)phenyl)-9H-purine-2,8-diamine] | 150 to 350 nM | 150 to 350 nM
CC(C)(CO)Nc1ncc2nc(Nc3cccc(Cl)c3)n(C3CCC(CN)CC3)c2n1 (stereo not drawn) [A-54, 2-(9-((1s,4s)-4-(aminomethyl)cyclohexyl)-8-(3-chlorophenylamino)-9H-purin-2-ylamino)-2-methylpropan-1-ol] | < 150 nM | 150 to 350 nM
CC1(Nc2ncc3nc(Nc4cc(Cl)cc(C(F)(F)F)c4)n(C4CCC(CN)CC4)c3n2)CCC1 (stereo not drawn) [A-55, 9-((1s,4s)-4-(aminomethyl)cyclohexyl)-N8-(3-chloro-5-(trifluoromethyl)phenyl)-N2-(1-methylcyclobutyl)-9H-purine-2,8-diamine] | 350 to 500 nM | 150 to 350 nM
CNC[C@H]1CC[C@@H](n2c(Nc3cccc(C(F)(F)F)c3)nc3cnc(NC4(C)CCOCC4)nc32)CC1 [A-58, 9-((1s,4s)-4-((methylamino)methyl)cyclohexyl)-N2-(4-methyltetrahydro-2H-pyran-4-yl)-N8-(3-(trifluoromethyl)phenyl)-9H-purine-2,8-diamine] | < 150 nM | < 150 nM
CC1(Nc2ncc3nc(Nc4cc(C(F)(F)F)ccc4F)n(C4CCC(N)CC4)c3n2)CCOCC1 (stereo not drawn) [A-59, 9-(4-aminocyclohexyl)-N8-(2-fluoro-5-(trifluoromethyl)phenyl)-N2-(4-methyltetrahydro-2H-pyran-4-yl)-9H-purine-2,8-diamine] | < 150 nM | 150 to 350 nM
CN(C)CC1CCC(n2c(Nc3cccc(Cl)c3F)nc3cnc(NC(C)(C)C)nc32)CC1 (stereo not drawn) [A-60, N2-tert-butyl-N8-(3-chloro-2-fluorophenyl)-9-((1s,4s)-4-((dimethylamino)methyl)cyclohexyl)-9H-purine-2,8-diamine] | < 150 nM | < 150 nM
CC1(Nc2ncc3nc(Nc4cc(C(F)(F)F)ccc4F)n(C4CCC(CN)CC4)c3n2)CCC1 (stereo not drawn) [A-61, 9-((1s,4s)-4-(aminomethyl)cyclohexyl)-N8-(2-fluoro-5-(trifluoromethyl)phenyl)-N2-(1-methylcyclobutyl)-9H-purine-2,8-diamine] | < 150 nM | 150 to 350 nM
NC[C@H]1CC[C@@H](n2c(Nc3cccc(Cl)c3)nc3cnc(NC4CCOCC4)nc32)CC1 [B-1, 9-((1s,4s)-4-(aminomethyl)cyclohexyl)-N8-(3-chlorophenyl)-N2-(tetrahydro-2H-pyran-4-yl)-9H-purine-2,8-diamine] | 350 to 500 nM | 150 to 350 nM
NC1CCC(n2c(Nc3cccc(Cl)c3)nc3cnc(NC4CC4)nc32)CC1 (stereo not drawn) [B-2, 9-((1r,4r)-4-aminocyclohexyl)-N8-(3-chlorophenyl)-N2-cyclopropyl-9H-purine-2,8-diamine] | < 150 nM | 350 to 500 nM
NC1CCC(n2c(Nc3cccc(Cl)c3)nc3cnc(NCC4CC4)nc32)CC1 (stereo not drawn) [B-3, 9-((1r,4r)-4-aminocyclohexyl)-N8-(3-chlorophenyl)-N2-(cyclopropylmethyl)-9H-purine-2,8-diamine] | 350 to 500 nM | 350 to 500 nM
NC1CCC(n2c(Nc3cccc(Cl)c3)nc3cnc(NCC(F)(F)F)nc32)CC1 (stereo not drawn) [B-4, 9-((1r,4r)-4-aminocyclohexyl)-N8-(3-chlorophenyl)-N2-(2,2,2-trifluoroethyl)-9H-purine-2,8-diamine] | < 150 nM | 350 to 500 nM
CN(c1ncc2nc(Nc3cccc(Cl)c3)n([C@H]3CC[C@@H](CN)CC3)c2n1)C1CCOCC1 [B-5, 9-((1s,4s)-4-(aminomethyl)cyclohexyl)-N8-(3-chlorophenyl)-N2-methyl-N2-(tetrahydro-2H-pyran-4-yl)-9H-purine-2,8-diamine] | < 150 nM | 350 to 500 nM
OCC1CCC(n2c(Nc3cccc(Cl)c3)nc3cnc(NC4CCOCC4)nc32)CC1 (stereo not drawn) [B-6, ((1s,4s)-4-(8-(3-chlorophenylamino)-2-(tetrahydro-2H-pyran-4-ylamino)-9H-purin-9-yl)cyclohexyl)methanol] | 350 to 500 nM | 350 to 500 nM
CN(C)c1ncc2nc(Nc3cccc(Cl)c3)n(C3CCC(CN)CC3)c2n1 (stereo not drawn) [B-7, 9-((1s,4s)-4-(aminomethyl)cyclohexyl)-N8-(3-chlorophenyl)-N2,N2-dimethyl-9H-purine-2,8-diamine] | < 150 nM | 350 to 500 nM
CC1(C)CC(Nc2ncc3nc(Nc4cccc(Cl)c4)n([C@H]4CC[C@@H](CN)CC4)c3n2)CCO1 (stereo partly drawn) [B-8, 9-((1s,4s)-4-(aminomethyl)cyclohexyl)-N8-(3-chlorophenyl)-N2-(2,2-dimethyltetrahydro-2H-pyran-4-yl)-9H-purine-2,8-diamine] | < 150 nM | 150 to 350 nM
CNc1ncc2nc(Nc3cccc(Cl)c3)n(C3CCC(CN)CC3)c2n1 (stereo not drawn) [B-9, 9-((1s,4s)-4-(aminomethyl)cyclohexyl)-N8-(3-chlorophenyl)-N2-methyl-9H-purine-2,8-diamine] | < 150 nM | 350 to 500 nM
NCC1CCC(n2c(Nc3cccc(Cl)c3)nc3cnc(NCC(F)(F)F)nc32)CC1 (stereo not drawn) [B-10, 9-((1s,4s)-4-(aminomethyl)cyclohexyl)-N8-(3-chlorophenyl)-N2-(2,2,2-trifluoroethyl)-9H-purine-2,8-diamine] | < 150 nM | 350 to 500 nM
CC1(O)CCC(Nc2ncc3nc(Nc4cccc(Cl)c4)n(C4CCC(CN)CC4)c3n2)CC1 (stereo not drawn) [B-11, 4-(9-((1s,4s)-4-(aminomethyl)cyclohexyl)-8-(3-chlorophenylamino)-9H-purin-2-ylamino)-1-methylcyclohexanol] | < 150 nM | 350 to 500 nM
